Measured values published in ChEMBL document CHEMBL5291721, “A preclinical secondary pharmacology resource illuminates target-adverse drug reaction associations of marketed drugs” (Nat Commun, 2023).

What was measured:
[1] = target: Prostaglandin G/H synthase 1 (Homo sapiens, UniProt P23219); type: functional
Vasopressin V2 receptor = Vasopressin V2 receptor (Homo sapiens, UniProt P30518)
Histamine H2 receptor = Histamine H2 receptor (Homo sapiens, UniProt P25021); type: functional, cell-based
Estrogen receptor = target: T1, Estrogen receptor (Homo sapiens, UniProt P03372)
T1 sequence (P03372 whole entry): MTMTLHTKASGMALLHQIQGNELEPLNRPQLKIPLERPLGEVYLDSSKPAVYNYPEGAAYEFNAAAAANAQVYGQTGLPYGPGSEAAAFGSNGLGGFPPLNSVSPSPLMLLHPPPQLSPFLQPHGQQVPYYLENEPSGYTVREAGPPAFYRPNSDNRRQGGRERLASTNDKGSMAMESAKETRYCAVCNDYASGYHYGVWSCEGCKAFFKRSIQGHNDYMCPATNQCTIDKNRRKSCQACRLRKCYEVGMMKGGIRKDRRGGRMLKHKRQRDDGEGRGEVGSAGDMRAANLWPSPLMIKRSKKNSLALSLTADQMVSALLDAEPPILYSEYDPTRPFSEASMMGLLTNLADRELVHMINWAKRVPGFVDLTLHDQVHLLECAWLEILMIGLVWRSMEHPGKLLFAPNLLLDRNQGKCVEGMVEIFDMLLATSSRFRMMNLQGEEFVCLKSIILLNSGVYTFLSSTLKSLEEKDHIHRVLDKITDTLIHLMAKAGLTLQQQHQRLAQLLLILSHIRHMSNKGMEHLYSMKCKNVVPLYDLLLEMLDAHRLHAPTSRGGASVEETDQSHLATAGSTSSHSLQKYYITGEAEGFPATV

[2] = target: Beta-1 adrenergic receptor (Homo sapiens, UniProt P08588); type: functional
Chain of Beta-1 adrenergic receptor (P08588 whole entry): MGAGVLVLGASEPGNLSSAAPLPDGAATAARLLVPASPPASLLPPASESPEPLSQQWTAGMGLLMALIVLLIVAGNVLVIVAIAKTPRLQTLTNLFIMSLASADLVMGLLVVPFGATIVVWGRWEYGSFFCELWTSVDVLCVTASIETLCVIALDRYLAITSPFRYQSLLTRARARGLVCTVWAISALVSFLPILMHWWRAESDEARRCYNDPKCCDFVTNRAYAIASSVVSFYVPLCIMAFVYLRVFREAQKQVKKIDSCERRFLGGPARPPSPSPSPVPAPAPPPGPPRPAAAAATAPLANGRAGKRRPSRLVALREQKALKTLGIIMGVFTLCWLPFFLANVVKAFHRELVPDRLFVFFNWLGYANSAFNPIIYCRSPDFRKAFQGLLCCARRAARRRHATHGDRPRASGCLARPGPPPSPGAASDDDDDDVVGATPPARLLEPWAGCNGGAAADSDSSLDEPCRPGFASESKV

[3] = target: Beta-2 adrenergic receptor (Homo sapiens, UniProt P07550); type: functional, cell-based
Chain of Beta-2 adrenergic receptor (P07550 whole entry): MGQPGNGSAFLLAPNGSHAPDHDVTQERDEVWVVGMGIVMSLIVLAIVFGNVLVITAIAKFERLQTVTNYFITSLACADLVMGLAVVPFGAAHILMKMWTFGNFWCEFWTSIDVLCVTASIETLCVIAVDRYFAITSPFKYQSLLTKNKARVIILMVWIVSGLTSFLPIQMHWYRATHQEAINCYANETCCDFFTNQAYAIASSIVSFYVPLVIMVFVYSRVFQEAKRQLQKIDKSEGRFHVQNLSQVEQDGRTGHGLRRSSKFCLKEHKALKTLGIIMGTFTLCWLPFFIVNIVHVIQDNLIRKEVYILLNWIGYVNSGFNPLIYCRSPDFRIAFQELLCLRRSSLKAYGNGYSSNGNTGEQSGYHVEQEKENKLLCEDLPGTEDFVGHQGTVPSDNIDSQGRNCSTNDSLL

Endothelin-1 receptor = target: T2, Endothelin-1 receptor (Homo sapiens, UniProt P25101)
T2 sequence (P25101 whole entry): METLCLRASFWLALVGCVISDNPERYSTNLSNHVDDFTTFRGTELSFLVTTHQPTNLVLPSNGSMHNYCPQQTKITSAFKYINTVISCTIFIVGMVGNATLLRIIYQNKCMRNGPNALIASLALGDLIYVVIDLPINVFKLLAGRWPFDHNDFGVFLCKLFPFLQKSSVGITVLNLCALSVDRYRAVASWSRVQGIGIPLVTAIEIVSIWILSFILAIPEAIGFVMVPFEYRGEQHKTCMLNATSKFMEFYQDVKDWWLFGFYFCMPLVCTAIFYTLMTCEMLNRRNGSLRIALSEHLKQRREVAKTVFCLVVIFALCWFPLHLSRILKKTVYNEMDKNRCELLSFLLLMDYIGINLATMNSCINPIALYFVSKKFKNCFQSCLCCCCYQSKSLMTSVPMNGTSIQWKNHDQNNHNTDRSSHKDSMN

[4] = target: Voltage-dependent L-type calcium channel subunit alpha-1C (Rattus norvegicus, UniProt P22002); type: functional
[5] = target: Sodium-dependent serotonin transporter (Homo sapiens, UniProt P31645)
Chain of Sodium-dependent serotonin transporter (P31645 whole entry): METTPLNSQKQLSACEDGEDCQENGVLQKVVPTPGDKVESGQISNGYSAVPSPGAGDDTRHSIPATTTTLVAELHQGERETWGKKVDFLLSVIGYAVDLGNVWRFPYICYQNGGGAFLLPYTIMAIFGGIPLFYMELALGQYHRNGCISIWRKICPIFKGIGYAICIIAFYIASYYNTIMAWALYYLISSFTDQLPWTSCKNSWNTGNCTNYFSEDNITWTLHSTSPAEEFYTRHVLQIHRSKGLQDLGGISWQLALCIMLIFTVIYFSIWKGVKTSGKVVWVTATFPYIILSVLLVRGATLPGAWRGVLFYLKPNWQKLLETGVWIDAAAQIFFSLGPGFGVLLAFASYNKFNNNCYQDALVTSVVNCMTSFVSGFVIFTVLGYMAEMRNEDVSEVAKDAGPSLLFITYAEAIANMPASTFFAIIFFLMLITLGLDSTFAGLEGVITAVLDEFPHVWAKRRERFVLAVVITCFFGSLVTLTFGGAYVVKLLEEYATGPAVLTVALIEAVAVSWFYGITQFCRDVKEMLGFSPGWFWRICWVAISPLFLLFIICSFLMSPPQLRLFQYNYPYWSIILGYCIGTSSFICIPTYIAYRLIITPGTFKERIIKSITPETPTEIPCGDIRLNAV

[6] = target: T3, Neuropeptide Y receptor type 1 (Homo sapiens, UniProt P25929)
T3 sequence (P25929 whole entry): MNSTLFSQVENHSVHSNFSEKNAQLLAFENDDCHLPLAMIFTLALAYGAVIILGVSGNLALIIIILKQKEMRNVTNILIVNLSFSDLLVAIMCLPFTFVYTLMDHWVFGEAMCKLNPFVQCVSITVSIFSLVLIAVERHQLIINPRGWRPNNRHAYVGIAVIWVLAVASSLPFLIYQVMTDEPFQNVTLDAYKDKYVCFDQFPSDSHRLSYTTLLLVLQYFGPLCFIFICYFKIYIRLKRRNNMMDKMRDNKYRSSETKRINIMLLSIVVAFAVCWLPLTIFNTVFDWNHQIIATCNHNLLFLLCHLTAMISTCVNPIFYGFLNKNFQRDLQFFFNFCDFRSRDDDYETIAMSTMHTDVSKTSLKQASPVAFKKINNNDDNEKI

[7] = target: T4, Alpha-1A adrenergic receptor (Homo sapiens, UniProt P35348); type: functional, cell-based
T4 sequence (P35348 whole entry): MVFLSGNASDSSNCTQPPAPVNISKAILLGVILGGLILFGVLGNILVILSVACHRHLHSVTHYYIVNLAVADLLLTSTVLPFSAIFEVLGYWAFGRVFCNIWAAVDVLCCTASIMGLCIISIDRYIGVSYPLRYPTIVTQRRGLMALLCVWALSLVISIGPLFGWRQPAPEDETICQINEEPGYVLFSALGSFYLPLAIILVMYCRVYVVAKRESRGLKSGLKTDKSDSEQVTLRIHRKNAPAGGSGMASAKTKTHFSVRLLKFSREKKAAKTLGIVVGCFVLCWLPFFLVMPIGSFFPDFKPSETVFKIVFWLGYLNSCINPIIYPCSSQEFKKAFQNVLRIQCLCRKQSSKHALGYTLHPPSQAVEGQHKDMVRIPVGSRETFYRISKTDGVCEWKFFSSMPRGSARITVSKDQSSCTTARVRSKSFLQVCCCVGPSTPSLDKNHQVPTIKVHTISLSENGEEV

[8] = target: T5, 5-hydroxytryptamine receptor 1A (Homo sapiens, UniProt P08908); type: functional, cell-based
T5 sequence (P08908 whole entry): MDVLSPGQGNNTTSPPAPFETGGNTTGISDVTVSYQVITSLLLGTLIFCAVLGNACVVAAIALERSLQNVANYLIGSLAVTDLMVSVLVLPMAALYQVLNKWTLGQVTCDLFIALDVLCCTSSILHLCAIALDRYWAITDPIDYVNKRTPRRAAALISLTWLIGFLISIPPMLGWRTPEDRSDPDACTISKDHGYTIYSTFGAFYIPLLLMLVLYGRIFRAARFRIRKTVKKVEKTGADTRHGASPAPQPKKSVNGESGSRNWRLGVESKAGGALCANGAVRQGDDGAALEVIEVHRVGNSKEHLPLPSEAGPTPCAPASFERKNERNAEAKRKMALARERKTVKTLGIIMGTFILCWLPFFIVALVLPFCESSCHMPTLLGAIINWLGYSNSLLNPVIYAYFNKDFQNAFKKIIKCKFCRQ

Acetylcholinesterase = Acetylcholinesterase (Homo sapiens, UniProt P22303); type: functional
Chain of Acetylcholinesterase (P22303 whole entry): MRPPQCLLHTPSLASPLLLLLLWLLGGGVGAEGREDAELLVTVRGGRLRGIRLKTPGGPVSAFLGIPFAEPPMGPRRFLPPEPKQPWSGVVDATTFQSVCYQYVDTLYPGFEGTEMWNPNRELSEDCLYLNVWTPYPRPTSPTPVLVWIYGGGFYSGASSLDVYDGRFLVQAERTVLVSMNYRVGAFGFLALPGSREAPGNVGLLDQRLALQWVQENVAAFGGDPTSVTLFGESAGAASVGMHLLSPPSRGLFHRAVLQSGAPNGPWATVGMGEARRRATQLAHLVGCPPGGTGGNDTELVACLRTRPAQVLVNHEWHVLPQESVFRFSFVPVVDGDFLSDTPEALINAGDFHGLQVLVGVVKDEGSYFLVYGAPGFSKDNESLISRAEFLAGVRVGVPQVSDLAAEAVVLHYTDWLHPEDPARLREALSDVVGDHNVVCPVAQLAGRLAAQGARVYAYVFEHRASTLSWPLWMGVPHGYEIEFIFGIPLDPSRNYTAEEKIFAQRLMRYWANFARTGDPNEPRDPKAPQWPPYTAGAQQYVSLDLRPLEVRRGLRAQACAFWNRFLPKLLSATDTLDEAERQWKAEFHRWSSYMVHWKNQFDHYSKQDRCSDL

D(3) dopamine receptor = D(3) dopamine receptor (Homo sapiens, UniProt P35462)
Chain of D(3) dopamine receptor (P35462 whole entry): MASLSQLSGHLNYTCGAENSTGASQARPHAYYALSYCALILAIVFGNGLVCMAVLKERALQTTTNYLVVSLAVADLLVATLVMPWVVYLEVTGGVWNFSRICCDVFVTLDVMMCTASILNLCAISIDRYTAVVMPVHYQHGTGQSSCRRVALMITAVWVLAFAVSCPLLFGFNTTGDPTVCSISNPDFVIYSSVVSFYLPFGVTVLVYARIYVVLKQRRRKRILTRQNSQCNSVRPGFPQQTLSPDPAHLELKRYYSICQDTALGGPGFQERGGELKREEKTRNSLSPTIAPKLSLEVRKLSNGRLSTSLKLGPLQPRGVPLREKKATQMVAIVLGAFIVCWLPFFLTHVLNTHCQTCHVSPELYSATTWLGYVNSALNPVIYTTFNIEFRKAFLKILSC

[9] = target: 5-hydroxytryptamine receptor 2B (Homo sapiens, UniProt P41595); type: functional, cell-based
Chain of 5-hydroxytryptamine receptor 2B (P41595 whole entry): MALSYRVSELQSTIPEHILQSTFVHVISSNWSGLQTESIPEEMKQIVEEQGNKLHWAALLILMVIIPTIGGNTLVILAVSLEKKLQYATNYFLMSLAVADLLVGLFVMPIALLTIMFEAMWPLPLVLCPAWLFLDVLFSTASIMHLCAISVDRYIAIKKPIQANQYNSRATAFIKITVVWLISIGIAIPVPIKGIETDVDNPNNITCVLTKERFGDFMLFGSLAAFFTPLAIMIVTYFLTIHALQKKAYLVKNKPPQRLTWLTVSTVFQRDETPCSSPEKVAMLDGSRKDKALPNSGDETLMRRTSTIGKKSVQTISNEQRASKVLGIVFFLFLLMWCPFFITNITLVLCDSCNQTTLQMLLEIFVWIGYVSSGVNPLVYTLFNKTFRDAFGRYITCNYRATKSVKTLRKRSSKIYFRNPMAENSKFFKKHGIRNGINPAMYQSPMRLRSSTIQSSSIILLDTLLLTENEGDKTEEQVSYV
Further: assay procedure not described here.

Chain of Vasopressin V2 receptor (P30518 whole entry): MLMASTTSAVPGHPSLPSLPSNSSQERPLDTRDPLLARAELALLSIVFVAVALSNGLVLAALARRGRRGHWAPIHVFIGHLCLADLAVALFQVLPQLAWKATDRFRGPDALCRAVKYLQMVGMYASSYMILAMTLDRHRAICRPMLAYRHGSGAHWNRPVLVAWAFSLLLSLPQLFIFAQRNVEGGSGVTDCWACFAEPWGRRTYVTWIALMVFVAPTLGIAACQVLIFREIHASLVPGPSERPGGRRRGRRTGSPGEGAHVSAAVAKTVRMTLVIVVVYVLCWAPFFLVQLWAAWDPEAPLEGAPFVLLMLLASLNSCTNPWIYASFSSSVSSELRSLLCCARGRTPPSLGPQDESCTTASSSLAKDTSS
Chain of Histamine H2 receptor (P25021 whole entry): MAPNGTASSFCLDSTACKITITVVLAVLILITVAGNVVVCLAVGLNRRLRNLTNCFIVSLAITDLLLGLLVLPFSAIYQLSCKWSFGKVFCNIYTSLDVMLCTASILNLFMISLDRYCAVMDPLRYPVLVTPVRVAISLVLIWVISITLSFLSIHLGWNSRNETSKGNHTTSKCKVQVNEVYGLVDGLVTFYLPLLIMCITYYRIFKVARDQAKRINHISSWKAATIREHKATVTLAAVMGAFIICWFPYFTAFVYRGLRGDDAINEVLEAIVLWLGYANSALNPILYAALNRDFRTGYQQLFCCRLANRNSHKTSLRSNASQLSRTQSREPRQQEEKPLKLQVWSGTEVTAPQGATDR
Chain of Prostaglandin G/H synthase 1 (P23219 whole entry): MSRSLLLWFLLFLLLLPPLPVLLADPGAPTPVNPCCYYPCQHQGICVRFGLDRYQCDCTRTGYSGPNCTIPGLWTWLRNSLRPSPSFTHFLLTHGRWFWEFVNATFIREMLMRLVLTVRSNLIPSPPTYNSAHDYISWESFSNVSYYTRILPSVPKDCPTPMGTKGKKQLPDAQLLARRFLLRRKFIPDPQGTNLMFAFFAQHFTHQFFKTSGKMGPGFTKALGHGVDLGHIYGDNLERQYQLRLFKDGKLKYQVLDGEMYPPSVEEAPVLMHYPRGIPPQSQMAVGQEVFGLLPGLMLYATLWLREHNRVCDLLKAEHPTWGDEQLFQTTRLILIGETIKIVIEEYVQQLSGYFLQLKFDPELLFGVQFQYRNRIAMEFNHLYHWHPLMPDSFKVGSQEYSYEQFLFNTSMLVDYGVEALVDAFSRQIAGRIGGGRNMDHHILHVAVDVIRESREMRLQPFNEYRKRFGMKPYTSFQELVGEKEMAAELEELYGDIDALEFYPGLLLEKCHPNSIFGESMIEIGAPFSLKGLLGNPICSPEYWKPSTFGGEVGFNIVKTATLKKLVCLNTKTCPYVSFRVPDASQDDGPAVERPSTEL

Structure (SMILES) | AC50 [1] [µM] | AC50 (Vasopressin V2 receptor) [µM] | AC50 (Histamine H2 receptor) [µM] | AC50 (Estrogen receptor) [µM] | AC50 [2] [µM] | AC50 [3] [µM] | AC50 (Endothelin-1 receptor) [µM] | AC50 [4] [µM] | AC50 [5] [µM] | AC50 [6] [µM] | AC50 [7] [µM] | AC50 [8] [µM] | AC50 (Acetylcholinesterase) [µM] | AC50 (D(3) dopamine receptor) [µM] | AC50 [9] [µM]
COc1cc2c(cc1OC)C(=O)C(CC1CCN(Cc3ccccc3)CC1)C2 (configuration not stated) [DONEPEZIL] | > 30 | > 30 | > 10 | > 30 | > 10 | > 30 | > 30 | > 10 | > 30 | > 30 |  |  |  |  | 
OCCN1CCN(CCCN2c3ccccc3C=Cc3ccccc32)CC1 [OPIPRAMOL] | > 30 | > 30 | > 30 | > 30 | > 30 | > 30 | > 30 |  | 11.7 | > 30 | 14 | > 30 | > 30 | 0.42 | > 30
CC(C(=O)O)c1ccc(N2CC=CC2)c(Cl)c1 (configuration not stated) [PIRPROFEN] | 0.0325 | > 30 | > 10 | > 30 | > 10 | > 30 | > 30 | > 10 | > 30 | > 30 | > 30 | > 10 | > 30 | > 30 | > 30
O=C(NC[C@H]1CN(c2ccc(N3CCOCC3=O)cc2)C(=O)O1)c1ccc(Cl)s1 [RIVAROXABAN] | > 30 |  |  | > 30 |  | > 30 |  |  | > 30 |  | > 30 |  | > 30 | > 30 | > 30
